Data set [1] deals with 21 purified protein kinases. In words: Kinase panel assay (KinaseProfiler). The class given is biochemical. The following applies: 1 µM A3373. The protocol: (§1) Supplementary materials and methods […]
In vitro kinase activity assays of A3373 were perfo rmed using the 21 kinase KinaseProfilerTM
(eurofins). Kinase activity was determined aft er in cubation with 1 µM A3373, acco rding to the
KinaseProfilerTM Service standard assay protocol s. […]

The subject of data set [2] is HCT116 cells. In words: Flow cytometry of do not eat-me signals and calreticulin. The class given is cell-based.
Data set [3] relates to HCT 116 cells. In words: Immunoblotting of β-catenin and its target genes. The class given is cell-based. The note with it: time- and dose-dependent, 1% serum. The method, then:
As previously described, lysates from cells or colorectal cancer (CRC) tissues were analyzed by immunoprecipitation, and/or Western blotting was performed as described previously. The antibodies used are listed in Supplementary Table 5. A polyclonal anti-PLD antibody that recognizes both PLD1 and PLD2 was generated, as previously described. The use of human CRC tissue samples was approved by the Institutional Review Board of Pusan National University, Korea (PNU IRB/2011-6).

Data set [4] concerns FHC cells. In words: Cell cycle analysis (BrdU/7-AAD flow cytometry), FHC. The class given is cell-based. The following applies: FHC normal fetal colonic mucosa cells. The method, then: For cell cycle analysis, the cells were treated with Α3373 or 5-FU. The cells were labeled with 10 μΜ bromodeoxyuridine (BrdU) for 2 h. Subsequently, the cells were stained with 7-aminoactinomycin D (7-AAD, Invitrogen) and a fluorescein isothiocyanate (FITC)-conjugated anti-BrdU antibody (Invitrogen). Apoptotic cells were detected using an Annexin V-FITC Apoptosis Detection Kit (BD Biosciences). The cells were analyzed using BD FACSAria III (BD Biosciences), and data analysis was performed using FlowJo v10.0 (BD Biosciences).
A general note: In flow cytometry, cells or beads pass a laser one at a time.

Data set [5] deals with DLD1 cells. Nature of the data set: Cell viability (MTT). The class given is cell-based. The method, then: Cell viability was measured by MTT (3-(4,5-dimethylthiazol2-yl)-2,5-diphenyltetrazolium bromide, Sigma-Aldrich). Cells (5 × 10^3 cells/well) were seeded in a 96-well plate. […] After treatment, the cells were incubated with 0.5 mg/mL MTT in the media for 2 h and lysed with DMSO. Absorbance was measured at 570 nm using a VersaMax ELISA microplate reader (Molecular Devices).

Data set [6] addresses hERG channel (Homo sapiens, UniProt Q12809). In words: hERG ligand-binding assay. The note with it: HEK293 cells transfected with hERG. The protocol:
Both hERG assays were conducted as described previously.

The test system of data set [7] is HCT116 cells. Nature of the data set: miR-4496 promoter and β-catenin 3′-UTR luciferase reporters. The class given is cell-based. In general terms: In a reporter assay the amount or activity of a reporter protein is the signal.
In data set [8] the test system is DLD1 cells. In words: Sphere formation assay. The class given is cell-based. The note with it: limiting dilution assays. The protocol: DLD1 cells were cultured in DMEM/F-12 with epidermal growth factor (20 ng/mL), basic fibroblast growth factor (20 ng/mL), and B27 supplements in noncoated dishes. For serial passaging, the sphere cells were dissociated into single cells with Accutase (Invitrogen) once every 4–7 days and incubated. After the secondary generation, the DLD1 sphere cells were used for the experiments. […] The cells were fixed with 4% paraformaldehyde, and sphere formation was calculated from 10 positions in each well by an Olympus BX53 microscope and cellSens image acquisition software (Olympus).

For data set [9], the system named is MC38-GFP-Luc cells. Nature of the data set: Colon cancer orthotopic model (MC38-GFP-Luc in cecum). The class given is in vivo, mouse. The method, then: GFP-luciferase expressing MC38 murine CRC (MC38-GFP-Luc) cells were cocultured with bone marrow-derived macrophages (BMDMs). After 48 h, the macrophages were isolated and incubated with naïve T cells from the splenocytes of wild-type mice to generate CD8^+ T cells. The activated CD8^+ T cells were sorted using BD FACSAria III, added to wells containing MC38-GFP-Luc cells and titrated to effector cells (E) and the target cell (T) ratio (E/T ratio). Four hours later, CD8^+ T-cell-mediated killing of MC38-GFP-Luc cancer cells in each well was monitored using a luciferase-based bioluminescence imaging system.
as §1
A colon cancer orthotropic model was established using 6- weeks-old C57BL/6 male mice.
Mice were administered a single IP injection of 2,2,2-Tribromoethanol (Avertin, Sigma - aldrich), an an esthetic . T he abdomen was shaved and the surgi cal site was draped in a sterile […]
manner. The incision was extended to 2–3 cm, and the cecum was exposed. 2 × 10^5 MC38-GFP-Luciferas e cells were suspended in 50 µL PBS and injected into the cecum. Seven days after cell injection, 10 mg/kg A3373 was orally administered to the mice daily for 4 weeks. […]
All mice wer e housed at 2 5°C under a 12:12 hou rs light/dark cycle. All animal procedu res were performed in accordance with the institutional guidelines for animal research and were approved by the Institutional Animal Care and Use Committee of Yonsei University (IACUC- […]
In a colon cancer orthotropic model, tumor-infiltrating lymphocytes (TILs) were isolated from the tumor tissue 30 days after cell injection. Tumors wer e en zymatically di ssociated in RPMI media containing 10% FBS, 200 mg/mL collagenase IV (Sigma- Aldrich), 20 mg/mL hyaluronidase (Sigma-Al drich), and 20 mg/mL DNase I (Sigma Aldrich) at 37 ℃ with stirring.
After 20 minutes of incubation, 0.1 M EDTA was added to prevent clumping. Cells were filtered through a 40 µm nylon mesh, single-cell suspensions were counted and used for the experiments. Finally, the TILs were resuspended in PBS containing 1% FBS. For the distribution of immune cells, anti- mouse CD45 microbeads were us ed according to the manufacturer’s instructions (Miltenyi Biotech). Isolated tumor cells were cultured for one passage to change the immunocompromised phenotype and assessed using flow cytometry.
Splenocytes were isolat ed from mouse spleens, seeded at 5× 10^6 cells, and stimulated with 10 µg/mL MC38 GFP-Luciferase cell lysates. For intracellular cytokine staining, cells were […]

The test system of data set [10] is DLD1 cells. In words: In vitro phagocytosis assay, DLD1 cells with THP1 macrophages. The class given is cell-based. The following applies: CFSE-labeled CRC cells cocultured with PMA-activated THP1 macrophages, vs vehicle.
Setting [11] is: mesenteric lymph nodes, vs vehicle.

These results are taken from PMC9535023, “Inhibition of phospholipase D1 induces immunogenic cell death and potentiates cancer immunotherapy in colorectal cancer” (Experimental & Molecular Medicine, 2022).

Each structure is given as a SMILES string.

hERG channel, sequence (Q12809 whole entry): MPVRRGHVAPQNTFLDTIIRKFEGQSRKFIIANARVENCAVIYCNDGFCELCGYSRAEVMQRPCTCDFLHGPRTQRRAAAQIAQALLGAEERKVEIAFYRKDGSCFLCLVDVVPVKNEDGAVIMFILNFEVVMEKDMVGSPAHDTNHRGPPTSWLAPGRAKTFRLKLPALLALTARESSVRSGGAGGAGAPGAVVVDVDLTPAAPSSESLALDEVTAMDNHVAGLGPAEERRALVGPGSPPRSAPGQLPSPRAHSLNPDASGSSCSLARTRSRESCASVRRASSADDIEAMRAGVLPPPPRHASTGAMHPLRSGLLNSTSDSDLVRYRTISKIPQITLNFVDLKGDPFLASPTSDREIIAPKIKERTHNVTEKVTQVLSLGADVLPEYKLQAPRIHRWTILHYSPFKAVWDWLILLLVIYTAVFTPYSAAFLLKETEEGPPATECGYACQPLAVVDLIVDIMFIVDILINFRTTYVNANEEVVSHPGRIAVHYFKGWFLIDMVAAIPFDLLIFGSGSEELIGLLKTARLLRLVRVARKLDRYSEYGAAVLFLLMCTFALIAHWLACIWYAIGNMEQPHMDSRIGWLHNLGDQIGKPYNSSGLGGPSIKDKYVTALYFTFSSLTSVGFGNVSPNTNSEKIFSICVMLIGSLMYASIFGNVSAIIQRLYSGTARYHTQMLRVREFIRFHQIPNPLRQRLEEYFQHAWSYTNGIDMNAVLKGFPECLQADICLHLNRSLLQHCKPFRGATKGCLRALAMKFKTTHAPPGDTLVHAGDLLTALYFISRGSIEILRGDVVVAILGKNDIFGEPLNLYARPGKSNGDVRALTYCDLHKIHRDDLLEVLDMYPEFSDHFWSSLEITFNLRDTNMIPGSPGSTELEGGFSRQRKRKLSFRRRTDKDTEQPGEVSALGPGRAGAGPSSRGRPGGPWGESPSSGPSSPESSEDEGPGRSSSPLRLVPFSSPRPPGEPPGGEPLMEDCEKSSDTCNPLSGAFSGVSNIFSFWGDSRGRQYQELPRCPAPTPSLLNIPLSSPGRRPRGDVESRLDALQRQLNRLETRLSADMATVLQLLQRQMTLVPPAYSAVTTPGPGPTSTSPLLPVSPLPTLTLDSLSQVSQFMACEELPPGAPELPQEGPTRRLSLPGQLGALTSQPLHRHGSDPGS

One may read the inhibition as the change of the read-out against control, counted positive when it falls. A higher inhibition goes with strong suppression. In the case of `O=C(Nc1cc(C(F)(F)F)cc(C(F)(F)F)c1)c1cc2cc(F)ccc2[nH]1` [Compound A3373], in [1], the “effect on activity of 21 purified protein kinases” value is given as “no effect”. In addition, in data set [2], the “cell-surface CRT expression, in words” value is reported as “increased cell-surface CRT expression”. For the same molecule, the “levels of do not eat-me signals, in words” value in data set [2] (CRC cells, flow cytometry) is “significantly reduced the levels of the “do not eat-me” signals”. The “protein levels of β-catenin and its target genes (PLD1, CD133, CD44, c-Myc, cyclin D1)” value in data set [3] was “greatly reduced the protein levels of β-catenin and its target genes”. Besides, the “cell cycle / S phase in FHC cells, in words” value in data set [4] is on record as “had no effect on FHC cells”. The “potency in suppressing viability, comparison” value in [5] (DLD1 cells) is “higher potency in suppressing viability than that of VU0155069”. Besides, the “viability of DLD1 cells, in words” value in data set [5] (dose- and time-dependent) is “significantly inhibited the viability”. In [6], this molecule displayed an inhibition at 10 µM of 3.4%. Also, in data set [7], the “luciferase activity of the β-catenin 3′-UTR reporter” value is listed as “significantly suppressed the luciferase activity” and the “promoter activity of miR-4496” value was “increased the promoter activity of miR-4496”. Moreover, in data set [8], the sphere-forming capacity result is recorded as “significantly decreased the sphere-forming capacity”. In addition, the “active caspase-3 and Ki67 in tumor tissues (IHC)” value in data set [9] (10 mg/kg every day for 4 weeks) was “increased levels of active caspase-3 and reduced levels of Ki67”. In addition, in [9] (10 mg/kg every day for 4 weeks, vs vehicle), the “mortality and tumor weight” value was “significant reduction in mortality and tumor weight”. Moreover, the “CD8+ T-cell-mediated killing, luciferase activity” value in data set [9] (MC38-GFP-Luc cells derived from treated mice, vs vehicle) was “significantly lower luciferase activity”. The “population of GFP+CD11b+ BMDMs, in words” value in data set [9] (coculture with MC38-GFP-Luc cells isolated from tumors) is “significantly increased the population of GFP^+CD11b^+ BMDMs”. In addition, in data set [9] (mesenteric lymph nodes restimulated with MC38-GFP-Luc lysates, vs vehicle), the “CD107a+ granzyme B+ and FasL+IFNγ+ CD8+ T cells” value is “increased population of CD107a^+ granzyme B^+ and FasL^+IFNγ^+ CD8^+ T cells”. For the same molecule, in [9] (setting [11]), the “Foxp3+ cells in the CD4+ TCRβ+ gate” value was “decreased population of Foxp3^+ cells”; the “IFNγ+ and IL17a+ in CD4+ T cells” value was “significantly increased the population of IFNγ^+ and IL17a^+ in CD4^+ T cells”. Further, the “population of CD11b+CFSE+ macrophages, in words” value in [10] was “significantly increased the population of CD11b^+CFSE^+ macrophages”.
